# Source: patent US9849143B2, “Broad spectrum antiviral and methods of use” (The Burlington HC Research Group, Inc., priority 2006, dated 2017)
# Where “and” joins values, the source holds several entries; their conditions need not be identical. Identical values can stand only once. Like-named read-outs stand apart in the source and are kept apart here.
# What was measured:
# [1] = system: A/HKx31 (H3N2); assay type: cell-based, influenza A
# [2] = system: Ad7-p (strain Gomen); assay: Infectious virus yield in A549 cell monolayers, Ad7-p; assay type: cell-based, adenovirus species B
# [3] = system: HIV; assay type: cell-based; conditions: for duration of action: cell culture, cysteamine re-added every 12 hours, WR-1065 added once in a 72 hour period
# [4] = system: PHA blasts; assay: Viability of PHA blasts exposed to WR-1065; assay type: cell-based, Human; conditions: uninfected PHA blasts
# [5] = system: Adenovirus 5p; assay: Plaque reduction assay in A549 cells; assay type: cell-based
# [6] = rhesus macaques, cited from earlier work
# [7] = system: Ad4-p (strain RI-67); assay: Infectious virus yield in A549 cell monolayers, Ad4-p; assay type: cell-based, adenovirus species E
# [8] = system: Ad5-p (strain Adenoid 75); assay: Infectious virus yield in A549 cell monolayers, Ad5-p; assay type: cell-based, adenovirus species C
# [9] = in vivo; cited from earlier work
# [10] = mouse, in vivo; cited from earlier work
# [11] = mouse, in vivo, cited from earlier work
# [12] = Experiment #1, 1000 μM WR1065, 72 hours
# [13] = Experiment #1, 10 μM AZT, 72 hours
structure (smiles),measurement,setting,value
"NCCCNCCS [WR-1065, 2-(3-aminopropylamino)ethanethiol]",Mean plaque number,[1],59.3 and 57 and 48
same,Mean infectious virus yields 96-h post infection & WR 1065 treatment,"[2]; Trial 1, <10 μM WR 1065",1.85 PFUs × 10^6
same,Mean infectious virus yields 96-h post infection & WR 1065 treatment,"[2]; Trial 1, <33 μM WR 1065",0.85 PFUs × 10^6
same,Mean infectious virus yields 96-h post infection & WR 1065 treatment,"[2]; Trial 1, <100 μM WR 1065",1.15 PFUs × 10^6
same,Mean infectious virus yields 96-h post infection & WR 1065 treatment,"[2]; Trial 2, <100 μM WR 1065",30.5 PFUs × 10^6
same,Estimated percent viral inhibition,[3]; [12],~100%
same,HIV P24,[3]; [12],0.13 pg/mL
same,suppression of HIV replication,[3]; WR-1065 at a concentration of less than 100 μM,> 99.9%
same,duration of action,[3],long duration of action
same,in vitro anti-HIV activity relative to cysteamine,[3]; compared by effective concentration,over 2 fold
same,% Viable Cells (compared to control),"[4]; 1 μM WR-1065, 72 hours",83%
same,% Viable Cells (compared to control),"[4]; 5 μM WR-1065, 72 hours",82%
same,% Viable Cells (compared to control),"[4]; 10 μM WR-1065, 72 hours",90%
same,% Viable Cells (compared to control),"[4]; 50 μM WR-1065, 72 hours",89%
same,% Viable Cells (compared to control),"[4]; 100 μM WR-1065, 72 hours",63%
same,% Viable Cells (compared to control),"[4]; 500 μM WR-1065, 72 hours",73%
same,% Viable Cells (compared to control),"[4]; 1000 μM WR-1065, 72 hours",30%
same,plaque number (plaque reduction assay),[5]; 16.5 μM WR1065,63
same,plaque number (plaque reduction assay),[5]; 50 μM WR1065,41
same,reduction of plaque number,[5]; 50 μM WR1065,36%
same,Concentration (plasma),[6]; 1 h after duodenal administration of 150 mg/kg BW of parent drug,6.21 µg/mL
same,Concentration (plasma),[6]; 2 h after duodenal administration of 150 mg/kg BW of parent drug,4.14 µg/mL
same,Concentration (plasma),[6]; 6 h after duodenal administration of 150 mg/kg BW of parent drug,2.07 µg/mL
same,Mean infectious virus yields 96-h post infection & WR 1065 treatment,"[7]; Trial 1, <33 μM WR 1065","1,420 PFUs × 10^6"
same,Mean infectious virus yields 96-h post infection & WR 1065 treatment,"[7]; Trial 1, <100 μM WR 1065",980 PFUs × 10^6
same,Mean infectious virus yields 96-h post infection & WR 1065 treatment,"[7]; Trial 2, <100 μM WR 1065",9.5 PFUs × 10^6
same,Mean infectious virus yields 96-h post infection & WR 1065 treatment,"[8]; Trial 1, <10 μM WR 1065",9.0 PFUs × 10^6
same,Mean infectious virus yields 96-h post infection & WR 1065 treatment,"[8]; Trial 1, <33 μM WR 1065",5.65 PFUs × 10^6
same,Mean infectious virus yields 96-h post infection & WR 1065 treatment,"[8]; Trial 1, <100 μM WR 1065",2.25 PFUs × 10^6
same,Mean infectious virus yields 96-h post infection & WR 1065 treatment,"[8]; Trial 2, <33 μM WR 1065",600 PFUs × 10^6
same,Mean infectious virus yields 96-h post infection & WR 1065 treatment,"[8]; Trial 2, <100 μM WR 1065",500 PFUs × 10^6
same,Mean infectious virus yields 96-h post infection & WR 1065 treatment,"[8]; Trial 3, <33 μM WR 1065","1,660 PFUs × 10^6"
"Cc1cn([C@H]2C[C@H](N=[N+]=[N-])[C@@H](CO)O2)c(=O)[nH]c1=O [AZT, Zidovudine]",Estimated percent viral inhibition,[3]; [13],~100%
same,HIV P24,[3]; [13],0.13 pg/mL
same,Estimated percent viral inhibition,"[3]; Experiment #3, 10 μM AZT",~100%
same,HIV P24,"[3]; Experiment #3, 10 μM AZT",2.9 pg/mL
"NCCCNCCSP(=O)(O)O [Amifostine, S-2-(3-aminopropyl)aminoethyl phosphorothioic acid]",effects of single doses,[9],no untoward effects
same,100% effective radioprotective dose,[10],about one half
same,maximally tolerated dose (MTD),[11]; ip,432 mg/kg BW
same,maximally tolerated dose (MTD),[11]; po,720 mg/kg BW
"NCCS [cysteamine, Cysteamine]",suppression of HIV replication,"[3]; 200 μM cysteamine, in vitro assay system as described above",~100%
same,duration of action,[3],very short
